Reference: PMC10348545 (PLOS Pathogens, 2023)

Target: T1, CbMip (Coxiella burnetii, UniProt P51752)
T1 construct: gene mip
Experiment: biochemical

T1 sequence (P51752 22-230 limits assumed): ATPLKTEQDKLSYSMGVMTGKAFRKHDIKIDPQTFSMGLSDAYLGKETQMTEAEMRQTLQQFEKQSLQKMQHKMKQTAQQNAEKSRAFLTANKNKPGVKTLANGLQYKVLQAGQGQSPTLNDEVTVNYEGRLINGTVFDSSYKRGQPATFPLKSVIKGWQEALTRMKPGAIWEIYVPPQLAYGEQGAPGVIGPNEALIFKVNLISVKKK

Row | Compound | Ki
1 | O=C(O[C@@H](Cc1ccccc1)C(=O)NCc1cccnc1)C1CCCCN1S(=O)(=O)Cc1ccccc1 (some centres unmarked) [ANCH37] | 4.6 ± 0.9 µM
2 | O=C(NCCOC(=O)[C@@H]1CCCCN1S(=O)(=O)Cc1ccccc1)c1cccnc1 [SF235] | 18 ± 4 µM
